Experimental data published in patent US20200378993A1, “MEDICAL USES OF APOLIPOPROTEIN A AND ACTIVATORS THEREOF” (FUNDACIÓN IMDEA ALIMENTACIÓN, priority 2017, published 2020).

Key:
Type in all cases: cell-based, human
DLD1_ABCA1 cells [1] = assay: Cell viability and proliferation assay (XCELLigence); conditions: RVX-208 30 μm 72 hours then 15 μM; DLD1 cells overexpressing ABCA1
Description: (§1) FIG. 6. A) Proliferation curve in a viability assay carried out by means of XCELLigence technology. The results for the stable cell line overexpressing ABCA1 in the absence and presence of ApoA1 are shown. The cells were treated for 72 hours before the experiment with 40 μg/ml of ApoA1 and with a concentration of 20 μg/ml during acquisition. B) Migration and invasion assays. The method followed was the same as the one described in FIG. 1. (**p-value=0.003; ****p-value<0.0001). C) ABCA1 messenger RNA level (left panel) and ABCA1 protein level (right panel) in the presence and absence of treatment with ApoA1. Results are shown both for the control cells and for those cells overexpressing the transporter.
Cell viability and proliferation assays were carried out by means of XCELLigence technology (ACEA Biosciences, Inc.) following the manufacturer's indications. Migration and invasion assays were carried out in Corning® BioCoat™ Control plates (#354578) and Corning® BioCoat™ Matrigel plates (#354480), respectively, following the manufacturer's indications. […]
(§2) The inventors were able to confirm said results based on the treatment of DLD1 cells expressing ABCA1 with RVX-208 under the conditions already described in detail in Example 3. […] The levels of caveolin-1, a protein whose increased levels have been associated with increases in cell migration and invasion, were also analyzed in this experiment.

cholesterol flux = assay: Cholesterol flux in treated cells; conditions: treatment with Rvx-208
Description: FIG. 7. A) Proliferation curve in a viability assay carried out by means of XCELLigence technology. Growth of DLD1 cells treated with DMSO as the drug carrier and with Rvx-208 (30 μM). The significant differences existing in the slope of the graph, and therefore in the growth dynamics of the treated cells are shown in the right panel (****p-value<0.0001). B) Migration and invasion assays. The method followed was the same as the one described in FIG. 2 (*p-value=0.0407; ****p-value<0.0001). C) Expression levels of proteins E-cadherin and Vimentin in the presence and absence of Rvx-208. Analysis performed by means of quantitative PCR. The relative expression levels normalized with respect to the untreated control are shown. D) ABCA1, ApoA1, caveolin-1, and α-tubulin immunodetection by means of Western blot. α-tubulin acts as load control. The results of the cells treated with Rvx-208 (30 μM) or with the DMSO carrier are shown. E) Cholesterol flux in cells treated with Rvx-208. The inventors were able to confirm said results based on the treatment of DLD1 cells expressing ABCA1 with RVX-208 under the conditions already described in detail in Example 3. […] The levels of caveolin-1, a protein whose increased levels have been associated with increases in cell migration and invasion, were also analyzed in this experiment.

DLD1_ABCA1 cells [2] = assay: Invasion assay (Corning BioCoat Matrigel plates); conditions: Rvx-208 with ApoA1 silenced by shApoA1; cells with high ABCA1 levels
Description: as §1, with “Results are shown both for the control cells and for those cells overexpressing the transporter.” left out
as §2
For the purpose of confirming that the effects of RVX-208 in cell phenotype recovery were due to the increase in ApoA-1 expression, the inventors inhibited the expression of said protein by means of transfection of a complementary small RNA, ShApoA1 (FIG. 9). […] Cell viability and proliferation in DLD1 cells (D_NoORF) and D1D1 cell lines expressing increased ApoA1 levels (D_ApoA1 ) were analyzed with the xCELLigence system.

DLD1 cells [3] = assay: Invasion assay (Corning BioCoat Matrigel plates)
Description: (§3) Cell viability and proliferation assays were carried out by means of XCELLigence technology (ACEA Biosciences, Inc.) following the manufacturer's indications. Migration and invasion assays were carried out in Corning® BioCoat™ Control plates (#354578) and Corning® BioCoat™ Matrigel plates (#354480), respectively, following the manufacturer's indications. For the rescue assays, the cells were treated for 72 hours with 30 μM apabetalone (RVX-208; Biovision). Antibodies: ABCA1 (Ab18180, Abcam. 1:500); caveolin-1 (Ab2910, Abcam. 1:1000); α-tubulin (T9026, Sigma 1:1000). The DLD1 cells correspond to a human colorectal cancer-derived adherent epithelial cell line (ATCC® CCL-221™). The stable cell lines capable of overexpressing ABCA1 were obtained by means of transduction with genetically modified lentivirus.
(§4) Following the same treatment regimen, the inventors carried out migration and invasion assays.
(§5) The same assays were repeated by replacing ApoA1 with a treatment with RVX-208. In this case, DLD1 cells were pre-treated for 72 hours before the start of the experiment with RVX-208 at a concentration of 30 μm and were subjected to a treatment with 15 μM of RVX-208 during the development of the experiments.
For the purpose of confirming that the effects of RVX-208 in cell phenotype recovery were due to the increase in ApoA-1 expression, the inventors inhibited the expression of said protein by means of transfection of a complementary small RNA, ShApoA1 (FIG. 9). Twenty-four hours after transfection with ShApoA1 expression vector, the inventors started treatment with 30 μM of RVX-208. Cell viability and proliferation in DLD1 cells (D_NoORF) and D1D1 cell lines expressing increased ApoA1 levels (D_ApoA1 ) were analyzed with the xCELLigence system.

[4] = system: ABCA1 cholesterol transporter; assay: ABCA1 messenger RNA and protein level after treatment; conditions: treatment with Rvx-208 (30 μM); Western blot
Description: as §1
FIG. 7. A) Proliferation curve in a viability assay carried out by means of XCELLigence technology. Growth of DLD1 cells treated with DMSO as the drug carrier and with Rvx-208 (30 μM). The significant differences existing in the slope of the graph, and therefore in the growth dynamics of the treated cells are shown in the right panel (****p-value<0.0001). B) Migration and invasion assays. The method followed was the same as the one described in FIG. 2 (*p-value=0.0407; ****p-value<0.0001). C) Expression levels of proteins E-cadherin and Vimentin in the presence and absence of Rvx-208. Analysis performed by means of quantitative PCR. The relative expression levels normalized with respect to the untreated control are shown. D) ABCA1, ApoA1, caveolin-1, and α-tubulin immunodetection by means of Western blot. α-tubulin acts as load control. The results of the cells treated with Rvx-208 (30 μM) or with the DMSO carrier are shown. E) Cholesterol flux in cells treated with Rvx-208.
as §3, with “The stable cell lines capable of overexpressing ABCA1 were obtained by means of transduction with genetically modified lentivirus.” left out
as §2

DLD1 cells [5] = assay: Migration assay (Corning BioCoat Control plates); conditions: RVX-208 30 μm 72 hours then 15 μM
Description: as §3, §4, §5

`COc1cc(OC)c2c(=O)[nH]c(-c3cc(C)c(OCCO)c(C)c3)nc2c1` [RVX-208, 2-(4-(2-hydroxyethoxy)-3,5-dimethylphenyl)-5,7-dimethoxyquinazolin-4(3H)-one] was tested, and the proliferative capacity (DLD1_ABCA1 cells [1]) was “significant decrease in proliferative capacity”, the cholesterol flux (cholesterol flux; cells overexpressing ABCA1) was “decreases significantly” and the cholesterol flux (cholesterol flux; control cells) was “decreases significantly”. The “effectiveness of treatment in terms of a decrease in cell invasion capacities” value (DLD1_ABCA1 cells [2]) was “reduces the effectiveness of treatment”, the invasive capacity (DLD1 cells [3]; RVX-208 30 μm 72 hours then 15 μM, DLD1 cells) was “significant decreases the migratory and invasive capacity” and the “effectiveness of treatment in terms of a decrease in cell invasion capacities” value (DLD1 cells [3]; Rvx-208 with ApoA1 silenced by shApoA1, control cells) was “reduces the effectiveness of treatment”. The ABCA1 expression levels [4] was “reduces ABCA1 expression levels” and the migratory capacity (DLD1 cells [5]) was “significant decreases the migratory and invasive capacity”.
